# How the values were obtained:
# [1] = tested on: patients with type 1 diabetes mellitus and diabetic nephropathy; conditions: Lewis et. al. 1993; cited from earlier work
# [2] = tested on: Diabetic rats; conditions: Utimura et. al. 2003, cited from earlier work
# [3] = tested on: patients with diabetic nephropathy; assay: 24-hour urine protein (proteinuria), Pyrogallol Red / SDS reagent method; open-labeled, randomized three-arm study; assay type: in vivo, human; set-up: 24h Urine protein (Mean) / Difference 24h Urine protein: unit not given here
# Excerpt: The study of the effect of MMF and lisinopril for the treatment of diabetic nephropathy was designed in the following manner.
# In this study, a total of 30 patients were planned of which 18 were randomized and subjected to enter into one of the studies in which the patient groups each received MMF alone, lisinopril alone, or a combination of both MMF and lisinopril.
# The primary end-point for this study was the proteinuria value obtained from the patients via 24-hour urine protein which was measured using the Calorimetric method Pyrogallol Red / SDS liquid stable single reagent.
# The inclusion of a patient is based on the following criteria. Type 1 and type 2 diabetic patients; male and postmenopausal (Natural & surgical) female diabetic patients; age 18-65 years; micral test positive (albumin excretion rate 20-200 µgm/min); patient must be able to swallow the oral medications to be used in the study; patient must sign an informed consent prior to the study.
# The exclusion of a subject from the study is based on the following criteria: Premenopausal female patients of any age; clinical evidence of SLE; uncontrolled diabetes (Fasting Blood Glucose≥ 160 mg/dl or HbA1c ≥ 7.5%); uncontrolled hypertension (Systolic blood pressure ≥ 160 mm Hg and/or diastolic blood pressure ≥ 100 mm Hg); impaired renal function with serum creatinine ≥ 1.4 mg/dl; well-documented history of Henoch-Schonlein Purpura (with an exception to previous nonspecific abdominal pain or rash ― which is not an exclusion criteria); clinical evidence of cirrhosis or chronic active liver disease; abnormal laboratory values at the time of study entry; absolute neutrophil count (ANC) < […], or hematocrit (HCT) < 28%; AER > 200 µgm/min; BUN ≥ 25 mg/dl; known contraindication or allergy to the administration of MMF or lisinopril; history of significant gastrointestinal disorder, e.g. severe chronic diarrhea or active peptic ulcer disease; active systemic infection or history of serious infection within one month of entry; known infection with HIV, hepatitis B or hepatitis C; other major organ system disease or malignancy other than skin cancer fully excised more than 5 years prior to entry; current or prior treatment with MMF or azathioprine; current or recent (within 30 days) exposure to any investigational drug.
# (§1) Evaluation of the effects of MMF or ACE inhibitors alone or in combination on the status of proteinuria in patients with diabetic nephropathy was an open-labeled, randomized study. This study consisted of three arms as shown below. • 1. treatment with MMF alone • 2. treatment with combination of MMF and lisinopril • 3. treatment with lisinopril alone In addition, there were three phases of the study as shown below.
# Phase 1: Screening Phase (Duration 1 to 4 weeks): 303 patients were screened on their first visit (V1), based on the given inclusion and exclusion criteria to determine if they were eligible for the study and to assess likelihood of compliance with study protocol. Micral test for every patient was done to determine the eligibility.
# (§2) Phase 2: Treatment Phase (6 months): Every patient who qualified the screening phase was assigned one of the treatment arms. During this phase, patients were monitored closely and efficacy and safety parameters are assessed every month.
# • 1. MMF: The dose of MMF given during the study was 500 mg per oral twice a day throughout the study. • 2. Lisinopril: The starting dose of lisinopril given in the study was 5 mg per oral twice a day. In case of hypertensive patients, the dose could be titrated upwards based on investigator's discretion, which in turn was based on the patient's "safety end point". • 3. MMF + Lisinopril: In the patients who received both the drugs, the dose of MMF was 500 mg per oral twice a day and lisinopril was 5 mg per oral twice a day. […]
# [4] = tested on: patients with diabetic nephropathy; assay: Estimated GFR by the Cockcroft - Gault formula; open-labeled, randomized three-arm study; assay type: in vivo, human
# Protocol: A secondary end-point for this study was the GFR value obtained for each patient. This Secondary Endpoint included Estimated GFR, which was calculated using the following formulae: […]
# Measurement of GFR Once all data was collected, Glomerular Filtration Rate GFR) was determined by the Cockcroft - Gault formula.
# Estimated GFR(inml/min) = ([140−age(in years)∗weight(in Kg))/(Serum Creatinie level(inμmol/L)) [formula]
# Estimated GFR(inml/min) = (1.23∗[140−age(in years)∗weight(in Kg))/(Serum Creatinie level(inμmol/L)) [formula]
# as §1, §2
# • 1. MMF: The dose of MMF given during the study was 500 mg per oral twice a day throughout the study. • 2. Lisinopril: The starting dose of lisinopril given in the study was 5 mg per oral twice a day. In case of hypertensive patients, the dose could be titrated upwards based on investigator's discretion, which in turn was based on the patient's "safety end point". • 3. MMF + Lisinopril: In the patients who received both the drugs, the dose of MMF was 500 mg per oral twice a day and lisinopril was 5 mg per oral twice a day. In the case of hypertensive patients, the dose of lisinopril could be titrated upwards based on investigator's discretion, which in turn was based on the patient's "safety end point".
# [5] = tested on: patients with IgA nephropathy; conditions: MMF 1-1.5g per day vs 30-40 mg of Prednisone per day; followed for seventy two weeks; preliminary report; cited from earlier work
# [6] = Benefited patients, 1 month after treatment at V3, MMF 500 mg per oral twice a day
# [7] = Benefited patients, 3 month after treatment at V4, MMF 500 mg twice daily
# [8] = Benefited patients, V3 (1 month) versus baseline V2, MMF 500 mg per oral twice a day
# [9] = Benefited patients, V4 (3 month) versus baseline V2, MMF 500 mg twice daily
# [10] = Not benefited patients, 1 month after treatment at V3, MMF 500 mg per oral twice a day
# [11] = Not benefited patients, 3 month after treatment at V4, MMF 500 mg twice daily
# [12] = Not benefited patients, V3 (1 month) versus baseline V2, MMF 500 mg per oral twice a day
# [13] = Benefited patients, 1 month after treatment at V3, lisinopril 5mg twice daily
# [14] = Benefited patients, 3 month after treatment at V4, lisinopril 5mg twice daily
# [15] = Benefited patients, 6 month after treatment at V5, lisinopril 5mg twice daily
# [16] = Benefited patients, V3 (1 month) versus baseline V2, lisinopril 5mg twice daily
# [17] = Benefited patients, V4 (3 month) versus baseline V2, lisinopril 5mg twice daily
# [18] = Benefited patients, V5 (6 month) versus baseline V2, lisinopril 5mg twice daily
# [19] = Not benefited patients, 1 month after treatment at V3, lisinopril 5mg twice daily
# [20] = Not benefited patients, 3 month after treatment at V4, lisinopril 5mg twice daily
# [21] = Not benefited patients, 6 month after treatment at V5, lisinopril 5mg twice daily
# [22] = Not benefited patients, V3 (1 month) versus baseline V2, lisinopril 5mg twice daily
# [23] = Not benefited patients, V4 (3 month) versus baseline V2, lisinopril 5mg twice daily
# [24] = Not benefited patients, V5 (6 month) versus baseline V2, lisinopril 5mg twice daily
compound,measurement,setting,value
C[C@H](CS)C(=O)N1CCC[C@H]1C(=O)O [Captopril],progression of renal disease,[1],prevents or delays
"COc1c(C)c2c(c(O)c1C/C=C(\C)CCC(=O)OCCN1CCOCC1)C(=O)OC2 [MMF, mycophenolate mofetil]","albuminuria, glomerular macrophage infiltration and glomerulosclerosis",[2]; 8 months,prevent
same,"effect on blood pressure, glomerular dynamics or blood glucose levels",[2],no effect
same,24h Urine protein (Mean),[3]; [6],112.73
same,24h Urine protein (Mean),[3]; [7],260.8
same,Difference 24h Urine protein,[3]; [8],-203.93
same,Difference 24h Urine protein,[3]; [9],-136.6
same,24h Urine protein (Mean),[3]; [10],696.3
same,24h Urine protein (Mean),[3]; [11],305.5
same,Difference 24h Urine protein,[3]; [12],361.7
same,reduced proteinuria in % of the patients,"[3]; after 1 month of treatment (V3 vs V2), MMF 500 mg per oral twice a day",67%
same,reduced proteinuria in % of the patients,"[3]; at V4 at the end of 3 months, 500 mg of MMF twice daily",67%
same,GFR (Mean),[4]; [6],89.3 mL/min
same,GFR (Mean),[4]; [7],81.85 mL/min
same,Difference GFR,[4]; [8],0.27 mL/min
same,Difference GFR,[4]; [9],-1.35 mL/min
same,GFR (Mean),[4]; [10],75.26 mL/min
same,GFR (Mean),[4]; [11],49.9 mL/min
same,Difference GFR,[4]; [12],4.40 mL/min
same,Difference GFR,"[4]; Not benefited patients, V4 (3 month) versus baseline V2, MMF 500 mg twice daily",49.9 mL/min
same,"decreasing proteinuria, protecting renal function and also decreasing blood lipid levels",[5],superior to Prednisone
NCCCC[C@H](N[C@@H](CCc1ccccc1)C(=O)O)C(=O)N1CCC[C@H]1C(=O)O [lisinopril],24h Urine protein (Mean),[3]; [13],236.66
same,24h Urine protein (Mean),[3]; [14],161.15
same,24h Urine protein (Mean),[3]; [15],248.4
same,Difference 24h Urine protein,[3]; [16],-133.6
same,Difference 24h Urine protein,[3]; [17],-268.75
same,Difference 24h Urine protein,[3]; [18],-239.6
same,24h Urine protein (Mean),[3]; [19],211.25
same,24h Urine protein (Mean),[3]; [20],289.2
same,24h Urine protein (Mean),[3]; [21],626
same,Difference 24h Urine protein,[3]; [22],53.73
same,Difference 24h Urine protein,[3]; [23],101.47
same,Difference 24h Urine protein,[3]; [24],254.2
same,reduced proteinuria in % of the patients,"[3]; at the end of 1 month (V3 vs V2), 5mg of lisinopril twice daily",42%
same,reduced proteinuria in % of the patients,"[3]; at the end of 3 month (V4 vs V2), 5mg of lisinopril twice daily",40%
same,reduced proteinuria in % of the patients,"[3]; at the end of 6 month (V5 vs V2), 5mg of lisinopril twice daily",50%
same,GFR (Mean),[4]; [13],79.16 mL/min
same,GFR (Mean),[4]; [14],89.55 mL/min
same,GFR (Mean),[4]; [15],105.9 mL/min
same,Difference GFR,[4]; [16],-0.09 mL/min
same,Difference GFR,[4]; [17],7.95 mL/min
same,Difference GFR,[4]; [18],28.5 mL/min
same,GFR (Mean),[4]; [19],63.97 mL/min
same,GFR (Mean),[4]; [20],68.76 mL/min
same,GFR (Mean),[4]; [21],76.4 mL/min
same,Difference GFR,[4]; [22],1.91 mL/min
same,Difference GFR,[4]; [23],0.13 mL/min
same,Difference GFR,[4]; [24],-9.4 mL/min

# From patent EP1656941A1, “Compositions for the treatment of diabetic nephropathy” (Clinigene International Private Limited, priority 2004, dated 2006)
